Laboratory results reported in patent US11083196B2, “Microbiocidal oxadiazole derivatives” (SYNGENTA PARTICIPATIONS AG, priority 2016, dated 2021).

Columns and labels:
[1] = tested on: Glomerella lagenarium (Colletotrichum lagenarium); test: Fungicidal activity against Glomerella lagenarium (Colletotrichum lagenarium), liquid culture / cucumber / preventative (anthracnose); type: cell-based; details: Colletotrichum orbiculare, liquid culture (PDB), growth inhibition measured photometrically 3-4 days after application, compared to untreated control
Description: Mycelia fragments or conidia suspensions of a fungus, prepared either freshly from liquid cultures of the fungus or from cryogenic storage, are directly mixed into nutrient broth. DMSO solutions of the test compound (max. 10 mg/ml) is diluted with 0.025% Tween20 by a factor of 50 and 10 μl of this solution is pipetted into a microtiter plate (96-well format). The nutrient broth containing the fungal spores/mycelia fragments is then added to give an end concentration of the tested compound. The test plates are incubated in the dark at 24° C. and 96% relative humidity. The inhibition of fungal growth is determined photometrically after 2 to 7 days, depending on the pathosystem, and percent antifungal activity relative to the untreated check is calculated. Conidia of the fungus from cryogenic storage are directly mixed into nutrient broth (PDB potato dextrose broth). After placing a (DMSO) solution of test compound into a microtiter plate (96-well format), the nutrient broth containing the fungal spores is added. The test plates are incubated at 24° C. and the inhibition of growth is measured photometrically 3-4 days after application.

[2] = tested on: Puccinia recondita f. sp. tritici; test: Fungicidal activity against Puccinia recondita f. sp. tritici / wheat / leaf disc preventative (brown rust); type: in vivo; details: foliar, 168 h, wheat leaf segments cv. Kanzler, inoculated 1 day after application, assessed 7-9 days after application, compared to untreated control
Description: Leaf disks or leaf segments of various plant species are cut from plants grown in a greenhouse. The cut leaf disks or segments are placed in multiwell plates (24-well format) onto water agar. The leaf disks are sprayed with a test solution before (preventative) or after (curative) inoculation. Compounds to be tested are prepared as DMSO solutions (max. 10 mg/ml) which are diluted to the appropriate concentration with 0.025% Tween20 just before spraying. The inoculated leaf disks or segments are incubated under defined conditions (temperature, relative humidity, light, etc.) according to the respective test system. A single evaluation of disease level is carried out 3 to 14 days after inoculation, depending on the pathosystem. Percent disease control relative to the untreated check leaf disks or segments is then calculated. Wheat leaf segments cv. Kanzler are placed on agar in multiwell plates (24-well format) and sprayed with the formulated test compound diluted in water. The leaf disks are inoculated with a spore suspension of the fungus 1 day after application. The inoculated leaf segments are incubated at 19° C. and 75% rh under a light regime of 12 h light/12 h darkness in a climate cabinet and the activity of a compound is assessed as percent disease control compared to untreated when an appropriate level of disease damage appears in untreated check leaf segments (7-9 days after application).

[3] = tested on: Puccinia recondita f. sp. tritici; test: Fungicidal activity against Puccinia recondita f. sp. tritici / wheat / leaf disc curative (brown rust); type: in vivo; details: foliar, 144 h, wheat leaf segments cv. Kanzler, applied 1 day after inoculation, assessed 6-8 days after application, compared to untreated control
Description: Leaf disks or leaf segments of various plant species are cut from plants grown in a greenhouse. The cut leaf disks or segments are placed in multiwell plates (24-well format) onto water agar. The leaf disks are sprayed with a test solution before (preventative) or after (curative) inoculation. Compounds to be tested are prepared as DMSO solutions (max. 10 mg/ml) which are diluted to the appropriate concentration with 0.025% Tween20 just before spraying. The inoculated leaf disks or segments are incubated under defined conditions (temperature, relative humidity, light, etc.) according to the respective test system. A single evaluation of disease level is carried out 3 to 14 days after inoculation, depending on the pathosystem. Percent disease control relative to the untreated check leaf disks or segments is then calculated. Wheat leaf segments cv. Kanzler are placed on agar in multiwell plates (24-well format). The leaf segments are inoculated with a spore suspension of the fungus. Plates are stored in darkness at 19° C. and 75% rh. The formulated test compound diluted in water is applied 1 day after inoculation. The leaf segments are incubated at 19° C. and 75% rh under a light regime of 12 h light/12 h darkness in a climate cabinet and the activity of a compound is assessed as percent disease control compared to untreated when an appropriate level of disease damage appears in untreated check leaf segments (6-8 days after application).

Phakopsora pachyrhizi = test: Fungicidal activity against Phakopsora pachyrhizi / soybean / leaf disc preventative (Asian soybean rust); type: in vivo; details: foliar, 288 h, soybean leaf disks, inoculated one day after application, assessed 12-14 days after application, compared to untreated control
Description: Leaf disks or leaf segments of various plant species are cut from plants grown in a greenhouse. The cut leaf disks or segments are placed in multiwell plates (24-well format) onto water agar. The leaf disks are sprayed with a test solution before (preventative) or after (curative) inoculation. Compounds to be tested are prepared as DMSO solutions (max. 10 mg/ml) which are diluted to the appropriate concentration with 0.025% Tween20 just before spraying. The inoculated leaf disks or segments are incubated under defined conditions (temperature, relative humidity, light, etc.) according to the respective test system. A single evaluation of disease level is carried out 3 to 14 days after inoculation, depending on the pathosystem. Percent disease control relative to the untreated check leaf disks or segments is then calculated. Soybean leaf disks are placed on water agar in multiwell plates (24-well format) and sprayed with the formulated test compound diluted in water. One day after application leaf discs are inoculated by spraying a spore suspension on the lower leaf surface. After an incubation period in a climate cabinet of 24-36 hours in darkness at 20° C. and 75% rh leaf disc are kept at 20° C. with 12 h light/day and 75% rh. The activity of a compound is assessed as percent disease control compared to untreated when an appropriate level of disease damage appears in untreated check leaf disks (12-14 days after application).

| Compound | inhibition of growth at 20 ppm [1] [%] | pest or weed control at 200 ppm [2] [%] | pest or weed control at 200 ppm [3] [%] | melting point [°C] | pest or weed control at 200 ppm (Phakopsora pachyrhizi) [%] |
| --- | --- | --- | --- | --- | --- |
| CC1=NOC(C)(c2ccc(-c3noc(C(F)(F)F)n3)cc2)C1 (stereo not shown) [Compound A-13, 3-[4-(3,5-dimethyl-4H-isoxazol-5-yl)phenyl]-5-(trifluoromethyl)-1,2,4-oxadiazole] | ≥ 80 | ≥ 80 | ≥ 80 |  |  |
| Fc1cc(-c2ccc(-c3noc(C(F)(F)F)n3)cc2)ccn1 [Compound D-7, 3-[4-(2-fluoro-4-pyridyl)phenyl]-5-(trifluoromethyl)-1,2,4-oxadiazole] | ≥ 80 | ≥ 80 | ≥ 80 | 105 to 110 |  |
| CCOCc1cc(-c2ccc(-c3noc(C(F)(F)F)n3)cc2)no1 [Compound C-5, 3-[4-[5-(ethoxymethyl)isoxazol-3-yl]phenyl]-5-(trifluoromethyl)-1,2,4-oxadiazole] |  |  |  |  | ≥ 80 |
| CC1(C)COC(c2ccc(-c3noc(C(F)(F)F)n3)cc2)NC1=O (stereo not shown) [Compound A-10, 5,5-dimethyl-2-[4-[5-(trifluoromethyl)-1,2,4-oxadiazol-3-yl]phenyl]-1,3-oxazinan-4-one] | ≥ 80 | ≥ 80 |  | 187.3 to 189 | ≥ 80 |
| COCC(=O)N1CCCC1c1ccc(-c2noc(C(F)(F)F)n2)cc1 (stereo not shown) [Compound A-33, 2-methoxy-1-[2-[4-[5-(trifluoromethyl)-1,2,4-oxadiazol-3-yl]phenyl]pyrrolidin-1-yl]ethanone] | ≥ 80 | ≥ 80 | ≥ 80 |  |  |
| CS(=O)(=O)N1CCCC1c1ccc(-c2noc(C(F)(F)F)n2)cc1 (stereo not shown) [Compound A-30, 3-[4-(1-methylsulfonyl-pyrrolidin-2-yl)phenyl]-5-(trifluoromethyl)-1,2,4-oxadiazole] | ≥ 80 | ≥ 80 | ≥ 80 | 117.7 to 118.6 |  |
| CC(C)(C)[S+]([O-])NC1CSC(c2ccc(-c3noc(C(F)(F)F)n3)c(F)c2)=N1 (stereo not shown) [Compound A-26, N-[2-[3-fluoro-4-[5-(trifluoromethyl)-1,2,4-oxadiazol-3-yl]phenyl]-4,5-dihydro-thiazol-4-yl]-2-methyl-propane-2-sulfinamide] | ≥ 80 | ≥ 80 | ≥ 80 |  |  |
| CC1(C)CC(=O)NC(c2ccc(-c3noc(C(F)(F)F)n3)cc2)O1 (stereo not shown) [Compound A-11, 6,6-dimethyl-2-[4-[5-(trifluoromethyl)-1,2,4-oxadiazol-3-yl]phenyl]-1,3-oxazinan-4-one] | ≥ 80 | ≥ 80 | ≥ 80 |  |  |
| CN(C)C(=O)C(=O)NC1CSC(c2ccc(-c3noc(C(F)(F)F)n3)c(F)c2)=N1 (stereo not shown) [Compound A-24, N-[2-[3-fluoro-4-[5-(trifluoromethyl)-1,2,4-oxadiazol-3-yl]phenyl]-4,5-dihydrothiazol-4-yl]-N′,N′-dimethyl-oxamide] | ≥ 80 | ≥ 80 | ≥ 80 | 120 to 165 |  |
| CON(C)C(=O)N1CCCC1c1ccc(-c2noc(C(F)(F)F)n2)cc1 (stereo not shown) [Compound A-31, N-methoxy-N-methyl-2-[4-[5-(trifluoromethyl)-1,2,4-oxadiazol-3-yl]phenyl]pyrrolidine-1-carboxamide] | ≥ 80 | ≥ 80 | ≥ 80 |  |  |
| O=C(N1CCCC1c1ccc(-c2noc(C(F)(F)F)n2)cc1)n1ccnc1 (stereo not shown) [Compound A-35, imidazol-1-yl-[2-[4-[5-(trifluoromethyl)-1,2,4-oxadiazol-3-yl]phenyl]pyrrolidin-1-yl]methanone] | ≥ 80 | ≥ 80 | ≥ 80 |  |  |
| FC(F)(F)c1nc(-c2ccc(-c3nc(CCl)co3)cc2)no1 [Compound C-4, 3-[4-[4-(chloromethyl)oxazol-2-yl]phenyl]-5-(trifluoromethyl)-1,2,4-oxadiazole] | ≥ 80 |  |  | 106 to 107 | ≥ 80 |
| CC(=O)N1CCCC1c1ccc(-c2noc(C(F)(F)F)n2)cc1 (stereo not shown) [Compound A-38, 1-[2-[4-[5-(trifluoromethyl)-1,2,4-oxadiazol-3-yl]phenyl]pyrrolidin-1-yl]ethanone] | ≥ 80 | ≥ 80 | ≥ 80 |  |  |
| Nc1ccc(-c2ccc(-c3noc(C(F)(F)F)n3)cc2)cn1 [Compound D-12, 5-[4-[5-(trifluoromethyl)-1,2,4-oxadiazol-3-yl]phenyl]pyridin-2-amine] | ≥ 80 | ≥ 80 |  | 155 to 160 | ≥ 80 |
| FC(F)(F)c1nc(-c2ccc(C3CC(C4CC4)=NO3)cc2)no1 (stereo not shown) [Compound A-12, 3-[4-(3-cyclopropyl-4,5-dihydroisoxazol-5-yl)phenyl]-5-(trifluoromethyl)-1,2,4-oxadiazole] | ≥ 80 | ≥ 80 |  | 109 to 112 | ≥ 80 |
| O=C(C1CC1)N1CCCC1c1ccc(-c2noc(C(F)(F)F)n2)cc1 (stereo not shown) [Compound A-36, cyclopropyl-[2-[4-[5-(trifluoromethyl)-1,2,4-oxadiazol-3-yl]phenyl]pyrrolidin-1-yl]methanone] | ≥ 80 |  | ≥ 80 |  | ≥ 80 |
| CC1(C)COC(c2ccc(-c3noc(C(F)(F)F)n3)cc2)=N1 [Compound A-2, 3-[4-(4,4-dimethyl-5H-oxazol-2-yl)phenyl]-5-(trifluoromethyl)-1,2,4-oxadiazole] | ≥ 80 | ≥ 80 | ≥ 80 | 70 to 75 |  |
| Fc1ccc(-c2ccc(-c3noc(C(F)(F)F)n3)cc2)cn1 [Compound D-6, 3-[4-(6-fluoro-3-pyridyl)phenyl]-5-(trifluoromethyl)-1,2,4-oxadiazole] | ≥ 80 | ≥ 80 | ≥ 80 | 75 to 80 |  |
| Cc1cc(C)n(-c2ccc(-c3noc(C(F)(F)F)n3)cc2)n1 [Compound E-1, 3-[4-(3,5-dimethylpyrazol-1-yl)phenyl]-5-(trifluoromethyl)-1,2,4-oxadiazole] | ≥ 80 | ≥ 80 | ≥ 80 | 109 to 111 |  |
